Data as given in paper PMC12473159, “A Comprehensive Functional Analysis of OsPEAMT1 and OsPEAMT2 Genes in Rice (Oryza sativa L. ssp. japonica)” (Plants, 2025).

How the values were obtained:
[1] = target: T1, OsPEAMT2 (Oryza sativa, UniProt A0A0P0WPX7); assay: LC-MS/MS of phosphocholine formed; type: biochemical; conditions: 200 uM P-EA, 200 uM S-adenosyl-L-methionine, HEPES-KOH pH 9.9, 2 mM EDTA, 30 C, 30 min
T1 construct: gene Os05g0548900; forward primer encodes MDAVAAN
T1 sequence (A0A0P0WPX7 1-495): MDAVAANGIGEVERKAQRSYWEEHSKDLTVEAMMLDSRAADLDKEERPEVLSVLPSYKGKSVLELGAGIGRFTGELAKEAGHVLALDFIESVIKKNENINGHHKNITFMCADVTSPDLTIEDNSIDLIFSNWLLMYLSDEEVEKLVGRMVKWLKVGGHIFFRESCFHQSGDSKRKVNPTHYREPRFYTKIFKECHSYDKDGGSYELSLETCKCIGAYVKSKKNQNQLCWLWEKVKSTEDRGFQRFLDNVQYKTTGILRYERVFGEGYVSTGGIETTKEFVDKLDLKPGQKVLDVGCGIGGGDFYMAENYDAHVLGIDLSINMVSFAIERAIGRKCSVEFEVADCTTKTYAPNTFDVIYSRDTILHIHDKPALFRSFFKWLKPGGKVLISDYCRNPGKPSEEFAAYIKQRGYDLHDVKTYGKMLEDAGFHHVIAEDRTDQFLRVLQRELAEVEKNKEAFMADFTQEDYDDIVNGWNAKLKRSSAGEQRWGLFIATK

[2] = target: T2, OsPEAMT1 (Oryza sativa, UniProt Q6QA26); assay: LC-MS/MS of phosphocholine formed; type: biochemical; conditions: 200 uM P-EA, 200 uM S-adenosyl-L-methionine, HEPES-KOH pH 9.9, 2 mM EDTA, 30 C, 30 min
T2 construct: gene PEAMT
T2 sequence (Q6QA26 20-499): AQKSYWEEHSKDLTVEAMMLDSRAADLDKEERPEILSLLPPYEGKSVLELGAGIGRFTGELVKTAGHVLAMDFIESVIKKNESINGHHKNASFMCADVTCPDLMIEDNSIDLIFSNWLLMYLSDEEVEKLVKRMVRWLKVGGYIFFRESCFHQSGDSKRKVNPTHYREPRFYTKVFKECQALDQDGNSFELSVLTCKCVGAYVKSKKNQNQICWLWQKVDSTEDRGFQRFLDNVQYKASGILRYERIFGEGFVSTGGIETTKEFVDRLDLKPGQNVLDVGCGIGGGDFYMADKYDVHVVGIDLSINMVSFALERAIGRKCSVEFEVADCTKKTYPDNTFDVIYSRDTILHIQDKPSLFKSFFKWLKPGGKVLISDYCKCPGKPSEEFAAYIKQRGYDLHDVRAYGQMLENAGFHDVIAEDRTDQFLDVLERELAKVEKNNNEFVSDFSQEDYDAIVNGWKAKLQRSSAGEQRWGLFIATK

NCCOP(=O)(O)O [P-EA]
LC-MS/MS of phosphocholine formed [1]: both recombinant OsPEAMT1 and OsPEAMT2 have the activity to catalyze substrate P-EA producing P-Cho | LC-MS/MS of phosphocholine formed [2]: both recombinant OsPEAMT1 and OsPEAMT2 have the activity to catalyze substrate P-EA producing P-Cho
